According to patent publication US10806798B2, “Compound with effects of thrombolysis, free radical scavenging and thrombus-targeting” (Shanghai Lumosa Therapeutics Co., Ltd., priority 2012, dated 2020):

Key:
Format in all cases: in vivo, SD rats
rats with stroke [1] = experiment: Successive treatments with 1 μmol/kg Ie starting 6 h after the onset of stroke (Zealonga scores)
Experimental: The efficacy was represented by neural function scores, and a lower score indicates higher efficacy. A 10% chloral hydrate solution was injected intraperitoneally into male SD rats at a dosage of 400 mg/kg body weight for anesthesia. A longitudinal open incision was made at the center of the neck, and the right common carotid artery trunk was dissected (about 3 cm in length). Carotid external artery branches were each dissected and ligated at the hyoid level, and the carotid internal artery was dissected at the swollen part of the neck. The open incision in the carotid internal artery and the proximal end of the common carotid artery were occluded respectively with noninvasive arterial clips, and the distal end of the carotid external artery was ligated. A catheter containing 0.5 mL thrombus suspension in normal saline was inserted in the carotid external artery trunk. At the same time when the clip on the carotid internal artery was released, the 0.5 mL thrombus suspension in normal saline in the catheter slowly flew from the carotid external artery to its proximal end, and then was injected into the arteries in brain through the carotid internal artery. Subsequently, the proximal end of the carotid artery was ligated, the arterial clips on the carotid internal artery and the common carotid artery were released, and blood flow was restored. After the wound was stitched up, 20,000 IU penicillin was intramuscularly injected for prevention from infection. After 6 h, compound Ie in normal saline (at a dosage of 1 μmol/kg, n=11), urokinase in normal saline (at a dosage of 20000 IU/kg, n=6) or tPA in normal saline (at a dosage of 3 mg/kg, n=6) was infused through the tail vein. Infusion of compound Ie in normal saline through rat tail vein was carried out once per day for 6 consecutive days, observed for 7 days. The rats were compared to themselves each day, and evaluated for the degree of damage in neural function by the Zealonga method. Alternatively, infusion of urokinase in normal saline through rat tail vein was carried out once per day for two consecutive days, the rats were compared to themselves each day, and evaluated for the degree of damage in neural function by the Zealonga method. Alternatively, infusion of tPA in normal saline through rat tail vein was carried out once per day for two consecutive days, the rats were compared to themselves each day, and evaluated for the degree of damage in neural function by the Zealonga method. A score of 0 indicated no sign of loss in neural function, 1 indicated the front limbs on the undamaged side could not stretch out, 2 indicated walking toward the undamaged side, 3 indicated tail-chasing walking in circles toward the undamaged side, 4 indicated involuntary walking with disturbance of consciousness, and 5 indicated death.

rats with stroke [2] = experiment: Successive treatments starting 4 h after the onset of stroke (Zealonga scores)
Experimental: The efficacy was represented by neural function scores, and a lower score indicates higher efficacy. A 10% chloral hydrate solution was injected intraperitoneally into male SD rats at a dosage of 400 mg/kg body weight for anesthesia. A longitudinal incision was made at the center of the neck, and the right carotid common artery trunk was dissected (about 3 cm in length). Carotid external artery branches were each dissected and ligated at the hyoid level, and the carotid internal artery was dissected at the swollen part of the neck. The open incision in the carotid internal artery and the proximal end of the common carotid artery were occluded respectively with noninvasive arterial clips, and the distal end of the carotid external artery was ligated. A catheter containing 0.5 mL thrombus suspension in normal saline was inserted in the carotid external artery trunk. At the same time when the clip on the carotid internal artery was released, the 0.5 mL thrombus suspension in normal saline in the catheter slowly flew from the carotid external artery to its proximal end, and then was injected into the arteries in brain through the carotid internal artery. Subsequently, the proximal end of the carotid artery was ligated, the arterial clips on the carotid internal artery and the common carotid artery were released, and blood flow was restored. After the wound was stitched up, 20,000 IU penicillin was intramuscularly injected for prevention from infection. After 4 h, compound Ie in normal saline (at a dosage of 1 μmol/kg, n=1), urokinase in normal saline (at a dosage of 20000 IU/kg, n=6) or tPA in normal saline (at a dosage of 3 mg/kg, n=6) was infused through the tail vein. Infusion of compound Ie in normal saline through rat tail vein was carried out once per day for 6 consecutive days, observed for 7 days. The rats were compared to themselves each day, and evaluated for degree of damage in neural function by the Zealonga method. Alternatively, infusion of urokinase in normal saline through rat tail vein was carried out once per day for two consecutive days, the rats were compared to themselves each day, and evaluated for the degree of damage in neural function by the Zealonga method. Alternatively, infusion of tPA in normal saline through rat tail vein was carried out once per day for two consecutive days, the rats were compared to themselves each day, and evaluated for the degree of damage in neural function by the Zealonga method. A score of 0 indicated no sign of loss in neural function, 1 indicated the front limbs on the undamaged side could not stretch out, 2 indicated walking toward the undamaged side, 3 indicated tail-chasing walking in circles toward the undamaged side, 4 indicated involuntary walking with disturbance of consciousness, and 5 indicated death.

rats with stroke [3] = experiment: Immediate treatment after stroke onset with different dosages of Ie (Zealonga scores)
Experimental: A 10% chloral hydrate solution (400 mg/kg) was injected intraperitoneally into male SD rats (250 to 300 g) for anesthesia. An incision of about 2 cm in length was longitudinally made slightly on the right to the center of the neck, and the right carotid common artery, carotid external artery and carotid internal artery were dissected along the margin of the inner side of sternocleidomastoid muscles. The open incision in the carotid internal artery and the proximal end of the common carotid artery were occluded respectively with noninvasive arterial clips. A small incision was made on the carotid external artery, and the distal end of the carotid external artery was ligated. The arterial clip at the proximal end of the carotid external artery was released, and 10 μl blood was drawn before the proximal end of the common carotid artery was again occluded with a noninvasive arterial clip. The 10 μl blood drawn was placed in a 1 mL EP vial and kept at RT for 30 min until coagulation of blood, and then transferred into a −20° C. refrigerator for 1 h to allow solid coagulation. After 1 h, the blood clots were taken out, added into 1 mL saline, and then broken into relatively uniform microthrombus by using a steel spatula. The microthrombus suspension was then transferred into a 1 mL injector until use. At the same time when the clip on the carotid internal artery of the rat was released, the 1 mL thrombus suspension in the injector was slowly injected from the carotid external artery of the rat to its proximal end, and then was injected into the brain of the rat through the carotid internal artery. Subsequently, the proximal end of the carotid external artery was ligated, the arterial clips on the carotid internal artery and the carotid common artery were released, and blood flow was restored. Injection of urokinase in normal saline (positive control group, at a dosage of 20000 IU/kg), tPA in normal saline (positive control group, at a dosage of 3 mg/kg), normal saline (blank control group, at a dosage of 3 mL/kg), or compound Ie in normal saline (at a dosage of 1 μmol/kg, 0.1 μmol/kg or 0.01 μmol/kg) was carried out. 24 h after the rats were awake, the degree of damage in neural function was evaluated by the Zealonga method. A score of 0 indicated no sign of loss in neural function, 1 indicated the front limbs on the undamaged side could not stretch out, 2 indicated walking toward the undamaged side, 3 indicated tail-chasing walking in circles toward the undamaged side, 4 indicated involuntary walking with disturbance of consciousness, and 5 indicated death. As shown in the results, in rats receiving immediate treatment after the onset of stroke with […] compound Ie, the percentage of rats with a neural function score of 0 was 60%, 30%, and 0%, respectively; and the percentage of rats with a neural function score of 1 was 20%, 30%, and 10%, respectively.

[4] = Day 1, tPA 3 mg/kg once per day from 6 h after stroke onset, n=6
[5] = Day 2, tPA 3 mg/kg once per day from 6 h after stroke onset, n=6
[6] = Day 1, tPA 3 mg/kg once per day from 4 h after stroke onset, n=6
[7] = Day 2, tPA 3 mg/kg once per day from 4 h after stroke onset, n=6

Substance: tPA: tissue-type plasminogen activator, positive control
- number of rats scored Score 0 (rats with stroke [1]; [4]): 1 rat^ rats
- number of rats scored Score 1 (rats with stroke [1]; [4]): 1 rat rats
- number of rats scored Score 2 (rats with stroke [1]; [4]): 1 rat rats
- number of rats scored Score 3 (rats with stroke [1]; [4]): 1 rat rats
- number of rats scored Score 4 (rats with stroke [1]; [4]): 2 rats
- number of rats scored Score 0 (rats with stroke [1]; [5]): 2 rats
- number of rats scored Score 2 (rats with stroke [1]; [5]): 1 rat rats
- number of rats scored Score 3 (rats with stroke [1]; [5]): 1 rat rats
- rats recovered to have only the sign of slight loss in neural function (rats with stroke [1]; after two doses, tPA 3 mg/kg each day from 6 h after stroke onset, 6 rats): 2 rats
- rats died (rats with stroke [1]; out of 6 rats, within 24 h, tPA 3 mg/kg each day from 6 h after stroke onset): 2
- autopsy on the dead rats (rats with stroke [1]; tPA 3 mg/kg each day from 6 h after stroke onset): hemorrhage in internal organs, particularly severe hemorrhage in lungs
- number of rats scored Score 1 (rats with stroke [2]; [6]): 2 rats
- number of rats scored Score 2 (rats with stroke [2]; [6]): 3 rats
- number of rats scored Score 3 (rats with stroke [2]; [6]): 1 rat rats
- number of rats scored Score 0 (rats with stroke [2]; [7]): 2 rats
- number of rats scored Score 1 (rats with stroke [2]; [7]): 2 rats
- number of rats scored Score 2 (rats with stroke [2]; [7]): 1 rat^ rats
- rats recovered to have only the sign of slight loss in neural function (rats with stroke [2]; after two doses, tPA 3 mg/kg each day from 4 h after stroke onset, 6 rats): 2 rats
- rats died (rats with stroke [2]; out of 6 rats, within 24 h, tPA 3 mg/kg each day from 4 h after stroke onset): 1
- autopsy on the dead rat (rats with stroke [2]; tPA 3 mg/kg each day from 4 h after stroke onset): hemorrhage in internal organs, particularly severe hemorrhage in lungs
- percentage of rats with a neural function score of 0 (rats with stroke [3]; 3 mg/kg tPA): 40%
- percentage of rats with a neural function score of 1 (rats with stroke [3]; 3 mg/kg tPA): 10%
- number of rats scored Score 0 (rats with stroke [3]; tPA 3 mg/kg, n = 10): 4
- number of rats scored Score 1 (rats with stroke [3]; tPA 3 mg/kg, n = 10): 1
- number of rats scored Score 2 (rats with stroke [3]; tPA 3 mg/kg, n = 10): 1
- number of rats scored Score 3 (rats with stroke [3]; tPA 3 mg/kg, n = 10): 3
- number of rats scored Score 4 (rats with stroke [3]; tPA 3 mg/kg, n = 10): 1
- number of rats scored Score 5 (rats with stroke [3]; tPA 3 mg/kg, n = 10): 0
